# Assay results reported in the kinase profiling compilation of Christmann-Franck et al. (2016).
# Legend:
# Test in all cases: radiometric filter-binding kinase assay, Kinase HotSpot
# Conditions in all cases: compound 0.5 µM; ATP 10 µM
# [1] = molecular target: PRKCG (human) (UniProt P05129)
# [2] = molecular target: DAPK2 (human) (UniProt Q9UIK4)
# [3] = molecular target: CDK1 CCNB1 (human) (UniProt P06493+P14635)
# [4] = molecular target: BLK (human) (UniProt P51451)
# [5] = molecular target: JAK3 JH1 JH2 (human) (UniProt P52333)
# [6] = molecular target: MERTK (human) (UniProt Q12866)
# [7] = molecular target: DAPK3 (human) (UniProt O43293)
# [8] = molecular target: MAP2K2 (human) (UniProt P36507)
# [9] = molecular target: ULK2 (human) (UniProt Q8IYT8)
# [10] = molecular target: CAMK4 (human) (UniProt Q16566)
# [11] = molecular target: MARK3 (human) (UniProt P27448)
# [12] = molecular target: CHEK2 (human) (UniProt O96017)
# [13] = molecular target: BRSK2 (human) (UniProt Q8IWQ3)
# [14] = molecular target: AURKA (human) (UniProt O14965)
# [15] = molecular target: PRKCD (human) (UniProt Q05655)
# [16] = molecular target: MAPK9 (human) (UniProt P45984)
# [17] = molecular target: PLK2 (human) (UniProt Q9NYY3)
# [18] = molecular target: NTRK2 (human) (UniProt Q16620)
# [19] = molecular target: PRKG2 (human) (UniProt Q13237)
# Sequence of PRKG2 (human) (Q13237 whole entry, looked up): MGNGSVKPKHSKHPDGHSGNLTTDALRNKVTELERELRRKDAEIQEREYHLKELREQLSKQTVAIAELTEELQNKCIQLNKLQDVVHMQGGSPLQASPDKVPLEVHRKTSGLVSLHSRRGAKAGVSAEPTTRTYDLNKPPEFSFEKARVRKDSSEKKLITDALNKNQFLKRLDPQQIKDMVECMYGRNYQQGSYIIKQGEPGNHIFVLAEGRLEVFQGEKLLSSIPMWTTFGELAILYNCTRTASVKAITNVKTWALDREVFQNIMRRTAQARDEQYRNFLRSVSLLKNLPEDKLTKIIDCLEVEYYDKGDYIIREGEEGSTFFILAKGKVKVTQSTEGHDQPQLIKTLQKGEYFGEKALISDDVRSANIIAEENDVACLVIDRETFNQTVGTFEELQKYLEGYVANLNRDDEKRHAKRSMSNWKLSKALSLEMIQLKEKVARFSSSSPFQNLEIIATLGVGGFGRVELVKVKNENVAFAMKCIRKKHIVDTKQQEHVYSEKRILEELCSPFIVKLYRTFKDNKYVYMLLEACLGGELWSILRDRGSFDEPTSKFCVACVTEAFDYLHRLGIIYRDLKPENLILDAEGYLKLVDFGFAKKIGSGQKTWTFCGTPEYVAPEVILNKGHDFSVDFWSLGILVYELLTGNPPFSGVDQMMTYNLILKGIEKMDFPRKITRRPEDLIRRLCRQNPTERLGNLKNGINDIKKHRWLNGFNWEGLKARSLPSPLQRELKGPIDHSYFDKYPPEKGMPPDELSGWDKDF
# [20] = molecular target: ROCK2 (human) (UniProt O75116)
# [21] = molecular target: GRK5 (human) (UniProt P34947)
# [22] = molecular target: EPHB1 (human) (UniProt P54762)
# [23] = molecular target: TEC (human) (UniProt P42680)
# Sequence of TEC (human) (P42680 whole entry, looked up): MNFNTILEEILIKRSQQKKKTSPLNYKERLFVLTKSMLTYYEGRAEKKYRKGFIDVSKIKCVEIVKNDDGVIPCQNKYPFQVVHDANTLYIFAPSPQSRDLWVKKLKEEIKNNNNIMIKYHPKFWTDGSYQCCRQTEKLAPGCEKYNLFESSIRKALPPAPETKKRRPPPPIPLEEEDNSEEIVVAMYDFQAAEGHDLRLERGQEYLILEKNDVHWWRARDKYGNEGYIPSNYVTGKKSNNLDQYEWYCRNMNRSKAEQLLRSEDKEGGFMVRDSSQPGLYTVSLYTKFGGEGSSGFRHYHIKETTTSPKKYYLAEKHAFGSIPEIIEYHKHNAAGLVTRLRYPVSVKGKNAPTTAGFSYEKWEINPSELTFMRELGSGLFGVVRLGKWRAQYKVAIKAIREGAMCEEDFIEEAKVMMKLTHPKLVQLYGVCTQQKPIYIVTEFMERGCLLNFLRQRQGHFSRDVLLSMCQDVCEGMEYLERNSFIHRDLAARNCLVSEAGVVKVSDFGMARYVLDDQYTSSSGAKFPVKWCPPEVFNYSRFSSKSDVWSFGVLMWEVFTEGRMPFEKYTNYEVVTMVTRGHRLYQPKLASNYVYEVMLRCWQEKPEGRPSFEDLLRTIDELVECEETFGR
# [24] = molecular target: PAK3 (human) (UniProt O75914)
# Sequence of PAK3 (human) (O75914 whole entry, looked up): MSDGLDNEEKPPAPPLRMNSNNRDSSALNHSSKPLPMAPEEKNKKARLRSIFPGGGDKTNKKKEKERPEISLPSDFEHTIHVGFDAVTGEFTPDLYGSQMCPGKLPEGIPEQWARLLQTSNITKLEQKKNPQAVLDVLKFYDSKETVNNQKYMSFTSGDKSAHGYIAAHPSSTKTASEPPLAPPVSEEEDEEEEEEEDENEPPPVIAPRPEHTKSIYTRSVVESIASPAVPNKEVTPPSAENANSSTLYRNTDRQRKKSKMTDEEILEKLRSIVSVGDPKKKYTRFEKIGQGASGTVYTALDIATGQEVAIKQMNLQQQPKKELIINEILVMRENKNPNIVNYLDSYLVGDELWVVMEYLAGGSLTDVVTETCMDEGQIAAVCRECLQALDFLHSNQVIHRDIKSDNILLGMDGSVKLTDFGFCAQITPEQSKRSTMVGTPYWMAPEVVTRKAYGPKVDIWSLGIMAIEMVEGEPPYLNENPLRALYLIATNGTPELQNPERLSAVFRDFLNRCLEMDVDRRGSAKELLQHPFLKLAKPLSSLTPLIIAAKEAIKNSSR
# [25] = molecular target: ACVR1 (human) (UniProt Q04771)
# [26] = molecular target: MAP4K5 (human) (UniProt Q9Y4K4)
# [27] = molecular target: FLT1 (human) (UniProt P17948)
# [28] = molecular target: FLT3 (human) (UniProt P36888)
# Sequence of FLT3 (human) (P36888 whole entry, looked up): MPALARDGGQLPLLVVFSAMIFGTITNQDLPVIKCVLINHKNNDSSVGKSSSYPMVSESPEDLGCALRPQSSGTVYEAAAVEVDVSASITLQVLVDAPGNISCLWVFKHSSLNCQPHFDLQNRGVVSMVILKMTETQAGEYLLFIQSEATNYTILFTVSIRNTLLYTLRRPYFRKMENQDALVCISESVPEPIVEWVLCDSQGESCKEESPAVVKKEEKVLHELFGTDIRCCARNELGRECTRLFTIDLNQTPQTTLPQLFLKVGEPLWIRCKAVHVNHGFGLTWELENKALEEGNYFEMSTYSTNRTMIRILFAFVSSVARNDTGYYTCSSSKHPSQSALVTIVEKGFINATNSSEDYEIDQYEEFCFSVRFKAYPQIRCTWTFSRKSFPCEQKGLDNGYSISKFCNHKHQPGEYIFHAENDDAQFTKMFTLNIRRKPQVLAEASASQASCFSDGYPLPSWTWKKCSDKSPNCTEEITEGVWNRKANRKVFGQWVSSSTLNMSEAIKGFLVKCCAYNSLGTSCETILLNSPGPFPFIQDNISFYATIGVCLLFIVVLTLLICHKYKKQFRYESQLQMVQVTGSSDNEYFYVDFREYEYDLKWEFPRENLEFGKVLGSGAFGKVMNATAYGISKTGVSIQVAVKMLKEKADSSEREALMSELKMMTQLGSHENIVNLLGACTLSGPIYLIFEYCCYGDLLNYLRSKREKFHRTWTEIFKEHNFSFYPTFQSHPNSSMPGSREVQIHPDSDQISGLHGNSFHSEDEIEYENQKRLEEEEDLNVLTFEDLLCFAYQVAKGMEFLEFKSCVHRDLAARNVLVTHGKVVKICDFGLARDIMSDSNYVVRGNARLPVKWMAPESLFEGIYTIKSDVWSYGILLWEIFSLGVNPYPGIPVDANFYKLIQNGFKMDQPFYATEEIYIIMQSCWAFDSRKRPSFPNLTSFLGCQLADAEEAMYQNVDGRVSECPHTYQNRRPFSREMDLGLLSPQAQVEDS
# [29] = molecular target: MATK (human) (UniProt P42679)
# Sequence of MATK (human) (P42679 whole entry, looked up): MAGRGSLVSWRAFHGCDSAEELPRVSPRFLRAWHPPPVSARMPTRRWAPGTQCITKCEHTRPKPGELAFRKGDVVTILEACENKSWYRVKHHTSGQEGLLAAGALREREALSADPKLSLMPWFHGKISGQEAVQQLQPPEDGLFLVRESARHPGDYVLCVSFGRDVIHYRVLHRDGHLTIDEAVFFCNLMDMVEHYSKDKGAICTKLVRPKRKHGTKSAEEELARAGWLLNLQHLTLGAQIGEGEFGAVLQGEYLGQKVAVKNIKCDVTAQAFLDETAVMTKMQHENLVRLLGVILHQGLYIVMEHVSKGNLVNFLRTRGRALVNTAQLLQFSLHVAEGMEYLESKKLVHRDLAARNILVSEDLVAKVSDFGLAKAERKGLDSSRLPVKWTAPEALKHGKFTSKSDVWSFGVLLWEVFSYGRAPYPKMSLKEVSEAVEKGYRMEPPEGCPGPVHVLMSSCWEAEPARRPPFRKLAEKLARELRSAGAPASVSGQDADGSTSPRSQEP
# [30] = molecular target: DYRK4 (human) (UniProt Q9NR20)
# [31] = molecular target: BMX (human) (UniProt P51813)
# [32] = molecular target: PAK2 (human) (UniProt Q13177)
# Sequence of PAK2 (human) (Q13177 whole entry, looked up): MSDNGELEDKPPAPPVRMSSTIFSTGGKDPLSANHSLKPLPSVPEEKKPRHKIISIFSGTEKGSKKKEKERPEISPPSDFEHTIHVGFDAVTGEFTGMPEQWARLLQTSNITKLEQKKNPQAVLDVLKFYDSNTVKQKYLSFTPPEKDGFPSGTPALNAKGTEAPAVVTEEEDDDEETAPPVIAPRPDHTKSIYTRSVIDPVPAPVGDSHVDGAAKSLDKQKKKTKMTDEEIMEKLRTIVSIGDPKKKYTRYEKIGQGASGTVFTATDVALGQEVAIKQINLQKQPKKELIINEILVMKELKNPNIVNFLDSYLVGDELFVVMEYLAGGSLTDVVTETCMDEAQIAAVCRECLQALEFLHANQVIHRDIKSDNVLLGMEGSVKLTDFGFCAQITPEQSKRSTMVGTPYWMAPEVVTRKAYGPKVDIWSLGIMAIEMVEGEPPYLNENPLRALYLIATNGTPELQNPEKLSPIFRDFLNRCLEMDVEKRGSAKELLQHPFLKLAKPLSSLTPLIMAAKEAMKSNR
# [33] = molecular target: NLK (human) (UniProt Q9UBE8)
# Sequence of NLK (human) (Q9UBE8 whole entry, looked up): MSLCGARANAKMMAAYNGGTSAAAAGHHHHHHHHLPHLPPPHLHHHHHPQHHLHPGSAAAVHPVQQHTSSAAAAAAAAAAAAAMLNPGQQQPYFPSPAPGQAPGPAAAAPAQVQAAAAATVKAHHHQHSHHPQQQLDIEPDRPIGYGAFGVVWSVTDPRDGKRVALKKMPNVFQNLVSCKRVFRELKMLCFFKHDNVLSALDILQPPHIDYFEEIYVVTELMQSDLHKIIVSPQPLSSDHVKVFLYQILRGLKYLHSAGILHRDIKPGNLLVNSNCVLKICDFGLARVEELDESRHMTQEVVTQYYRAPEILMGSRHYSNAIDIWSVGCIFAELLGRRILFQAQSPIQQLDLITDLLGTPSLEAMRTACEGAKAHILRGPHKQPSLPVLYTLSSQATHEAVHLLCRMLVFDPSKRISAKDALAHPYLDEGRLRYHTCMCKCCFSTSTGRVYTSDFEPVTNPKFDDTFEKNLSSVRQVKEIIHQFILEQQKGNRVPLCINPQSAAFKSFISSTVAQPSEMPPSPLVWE
# [34] = molecular target: CLK4 (human) (UniProt Q9HAZ1)
# Sequence of CLK4 (human) (Q9HAZ1 whole entry, looked up): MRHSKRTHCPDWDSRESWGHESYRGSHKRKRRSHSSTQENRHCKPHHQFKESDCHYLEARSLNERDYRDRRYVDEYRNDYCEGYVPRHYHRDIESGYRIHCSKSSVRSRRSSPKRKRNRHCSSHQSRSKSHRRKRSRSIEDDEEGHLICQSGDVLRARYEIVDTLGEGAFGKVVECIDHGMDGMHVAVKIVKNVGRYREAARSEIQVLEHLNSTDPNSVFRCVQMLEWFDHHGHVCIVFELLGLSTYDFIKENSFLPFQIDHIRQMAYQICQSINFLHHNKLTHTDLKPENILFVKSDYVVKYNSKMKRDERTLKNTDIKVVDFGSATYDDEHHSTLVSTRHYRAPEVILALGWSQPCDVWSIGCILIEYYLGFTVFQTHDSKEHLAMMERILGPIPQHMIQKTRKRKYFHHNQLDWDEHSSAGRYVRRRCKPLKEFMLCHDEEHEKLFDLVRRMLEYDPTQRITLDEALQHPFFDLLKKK
# [35] = molecular target: EPHA2 (human) (UniProt P29317)
# [36] = molecular target: EPHA3 (human) (UniProt P29320)
# [37] = molecular target: STK33 (human) (UniProt Q9BYT3)
# [38] = molecular target: CAMK2G (human) (UniProt Q13555)
# [39] = molecular target: DSTYK (human) (UniProt Q6XUX3)
# [40] = molecular target: ULK1 (human) (UniProt O75385)
# [41] = molecular target: LCK (human) (UniProt P06239)
# [42] = molecular target: FGFR2 (human) (UniProt P21802)
structure (smiles),measurement,setting,value
c1ccc(-c2n[nH]c3c2oc2ccccc23)cc1,residual activity,[1],99.9%
same,residual activity,[2],71.2%
same,residual activity,[3],87.7%
same,residual activity,[4],88.9%
same,residual activity,[5],132%
same,residual activity,[6],80%
same,residual activity,[7],91.5%
same,residual activity,[8],85.8%
same,residual activity,[9],96.4%
same,residual activity,[10],93.7%
same,residual activity,[11],96.5%
same,residual activity,[12],101%
same,residual activity,[13],101%
same,residual activity,[14],103%
same,residual activity,[15],96.7%
same,residual activity,[16],96.5%
same,residual activity,[17],102%
same,residual activity,[18],64%
same,residual activity,[19],109%
same,residual activity,[20],87.3%
same,residual activity,[21],123%
same,residual activity,[22],103%
same,residual activity,[23],95.6%
same,residual activity,[24],89.2%
same,residual activity,[25],99.4%
same,residual activity,[26],36.6%
same,residual activity,[27],94.5%
same,residual activity,[28],12.1%
same,residual activity,[29],94%
same,residual activity,[30],99.7%
same,residual activity,[31],106%
same,residual activity,[32],92.3%
same,residual activity,[33],92.3%
same,residual activity,[34],98.9%
same,residual activity,[35],105%
same,residual activity,[36],104%
same,residual activity,[37],96.5%
same,residual activity,[38],93.3%
same,residual activity,[39],82.9%
same,residual activity,[40],124%
same,residual activity,[41],99.3%
same,residual activity,[42],97%
O=c1cc(N2CCOCC2)oc2c1ccc1ccccc12,residual activity,[1],101%
same,residual activity,[2],115%
same,residual activity,[3],85.5%
same,residual activity,[4],104%
same,residual activity,[5],103%
same,residual activity,[6],96.4%
same,residual activity,[7],94.6%
same,residual activity,[8],100%
same,residual activity,[9],94.9%
same,residual activity,[10],94%
same,residual activity,[11],110%
same,residual activity,[12],104%
same,residual activity,[13],92.6%
same,residual activity,[14],98%
same,residual activity,[15],95.1%
same,residual activity,[16],101%
same,residual activity,[17],106%
same,residual activity,[18],94%
same,residual activity,[19],102%
same,residual activity,[20],95.9%
same,residual activity,[21],106%
same,residual activity,[22],104%
same,residual activity,[23],150%
same,residual activity,[24],102%
same,residual activity,[25],107%
same,residual activity,[26],103%
same,residual activity,[27],95.5%
same,residual activity,[28],104%
same,residual activity,[29],90.7%
same,residual activity,[30],91.9%
same,residual activity,[31],92.7%
same,residual activity,[32],103%
same,residual activity,[33],103%
same,residual activity,[34],101%
same,residual activity,[35],110%
same,residual activity,[36],112%
same,residual activity,[37],97.5%
same,residual activity,[38],95.5%
same,residual activity,[39],110%
same,residual activity,[40],96.1%
same,residual activity,[41],99.2%
same,residual activity,[42],107%
